The record followed here is paper PMC8205030, “Methoxy and bromo scans on N-(5-methoxyphenyl) methoxybenzenesulphonamides reveal potent cytotoxic compounds, especially against the human breast adenocarcinoma MCF7 cell line” (Journal of Enzyme Inhibition and Medicinal Chemistry, 2021).

In brackets after ≈: the same amount, converted by molar mass. Read-outs that look alike come from different tables or passages of the source.

Data set [1] has as its system HeLa (human cervical carcinoma) cells. Description: Cell growth assay (XTT), HeLa. The class given is cell-based. The settings on record: 72 h drug exposure, read-out: Antiproliferative activity IC50 HeLa. In outline: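 Cells (1.5 × 10^4 cells/mL for MCF7, HeLa, HEK293; 3 × 10^4 cells/mL for HT-29) attached 24 h, then treated 72 h at 37 °C, 5% CO2. Screened at 1 µM; IC50 versus untreated controls from 10^−5 to 10^−10 M by nonlinear fit. XTT/PMS absorbance at 450 nm after 4 h (MCF7, HeLa) or 6 h (HT-29, HEK293); HT-29 with 10 µM verapamil.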
For orientation: Formazan colour is commonly taken as a measure of viable cells.

For data set [2], the system named is HT-29 (human colon carcinoma) cells. Description: Cell growth assay (XTT), HT-29, alone or with verapamil. The class given is cell-based.
Data set [3] has as its system HT-29 cells. In words: Apoptotic cell death quantification (Annexin V-FITC/PI), HT-29. The class given is cell-based, human. The settings on record: for Early apoptosis / Late apoptosis / Live (AnV–/PI–) / Necrosis: 72 h; for Apoptotic response: HT-29, 72 h. As to the method:
MCF7, HeLa, and HT-29 apoptotic cells were quantified using an Annexin V-FITC/PI apoptosis detection kit (Immunostep, Salamanca, Spain) according to the manufacturer’s guidelines. 1.5 ml/well of cells in the exponential growth phase at 2 × 10^4 cells/mL were seeded onto 12-well plates and left to attach overnight. After 24 h incubation, cells were treated with compound 25 at 87.5 or 175 nM. 72 h post-treatment, attached and floating cells of treated and untreated wells were collected, centrifuged, resuspended in the Annexin V binding buffer, and stained with Annexin V-FITC/PI. Cells were then incubated in darkness at room temperature for 15 min and a total of 30,000 cells were acquired and analysed using the BD Accuri™ C6 Plus Flow Cytometer and Software (version 1.0.264.21, BD Biosciences, San José, CA, USA), respectively. Compounds were dissolved in DMSO and the final solvent concentrations never exceeded 0.5% (v/v). Control wells included cells with 0.5% (v/v) DMSO.

Data set [4] in a line: Aqueous solubility (saturation shake-flask, UV). The format is physicochemical. As to conditions: aqueous buffer, thermodynamic from solid, pH 7.0 phosphate buffer, room temperature.

In the case of `COc1ccc(S(=O)(=O)N(CC#N)c2cc(OC)c(Br)cc2OC)cc1` [Compound 25, N-(4-bromo-2,5-dimethoxyphenyl)-N-(cyanomethyl)-4-methoxybenzenesulphonamide], the IC50 – broadly, the concentration that gives 50% inhibition – in data set [1] was determined as 36 nM; in data set [2] (72 h, in the presence of Pgp/MDR1 inhibitor verapamil (10 µM), read-out: Antiproliferative activity IC50 HT-29 Verap), 85 nM; in data set [2] (Homo sapiens, HT-29, 72 h drug exposure, XTT, read-out: Antiproliferative activity IC50 HT-29) it was 97 nM. Also, the Early apoptosis in data set [3] (HT-29, 87.5 nM) turned out to be 16.4%; in data set [3] (HT-29, 175 nM), 20.4%. Also, the Late apoptosis in data set [3] (HT-29, 87.5 nM) was determined as 6.8%; in data set [3] (HT-29, 175 nM), 15.3%. Also, the “Live (AnV–/PI–)” value in data set [3] (HT-29, 87.5 nM) stood at 76.2%; in data set [3] (HT-29, 175 nM), 61.7%. Further, the Necrosis in data set [3] (HT-29, 87.5 nM) amounted to 0.7%; in data set [3] (HT-29, 175 nM) it was 2.5%. In addition, the Apoptotic response was 23% in data set [3] (lower end of printed span (87.5 nM)) and 36% in data set [3] (upper end of printed span (175 nM)). The solubility (usually the concentration that dissolves in the medium under given conditions) at 48 h in data set [4] stood at 1 µg/mL (≈ 2.27 µM).
